target: T1, human LTA4 hydrolase (Homo sapiens, UniProt P09960); experiment: LTA4H Enzyme assay (cleavage of Arg-AMC, fluorescence); type: biochemical; conditions: LTA4H Enzyme 1 nM, Arg-AMC substrate 50 μM, room temperature 1 h, fluorescence; read-out: IC50 values of LTA4H Enzyme assay
T1 sequence (P09960 1-611): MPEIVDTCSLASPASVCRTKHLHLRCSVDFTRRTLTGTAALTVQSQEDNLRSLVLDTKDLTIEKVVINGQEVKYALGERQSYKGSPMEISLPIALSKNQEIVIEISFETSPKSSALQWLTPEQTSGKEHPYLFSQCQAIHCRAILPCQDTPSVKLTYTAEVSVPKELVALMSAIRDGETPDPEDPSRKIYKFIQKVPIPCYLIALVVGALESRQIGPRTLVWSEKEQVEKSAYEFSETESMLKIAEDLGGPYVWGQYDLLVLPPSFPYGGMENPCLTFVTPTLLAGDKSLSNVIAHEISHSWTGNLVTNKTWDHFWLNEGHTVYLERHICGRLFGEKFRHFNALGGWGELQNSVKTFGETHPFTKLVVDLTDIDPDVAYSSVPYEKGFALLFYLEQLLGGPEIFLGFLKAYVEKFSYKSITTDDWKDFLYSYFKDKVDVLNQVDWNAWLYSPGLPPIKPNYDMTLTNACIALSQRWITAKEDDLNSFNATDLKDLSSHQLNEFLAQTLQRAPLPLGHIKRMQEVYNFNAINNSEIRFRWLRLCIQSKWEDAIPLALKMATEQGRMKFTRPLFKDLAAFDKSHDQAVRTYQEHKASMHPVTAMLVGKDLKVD
Protocol: The compounds of the invention are assessed for the ability to interact with human LTA4 hydrolase in an enzymatic assay that measures the ability of the enzyme to cleave the peptide bond of arginyl-aminomethylcoumarin (Arg-AMC). LTA4H Enzyme (1 nM final), Arg-AMC substrate (50 μM final), and compound are combined in a reaction buffer (50 mM Tris-HCl (pH 7.5), 100 mM KCl, 0.5% bovine serum albumin) at room temperature for 1 h. The formation of product is assessed by measuring the fluorescence of aminomethylcoumarin product (excitation wavelength 380 nm/emission wavelength 460 nm).

Row | Structure (SMILES) | IC50 [nM]
1 | CC1(C)CCN(Cc2ccc(C3COc4ccccc4O3)cc2)CC1 (racemic) [Example 3, 1-[4-(2,3-dihydro-1,4-benzodioxin-2-yl)benzyl]-4,4-dimethylpiperidine] | 2.57
2 | O=C1NCCC12CCN(Cc1ccc(C3COc4ccccc4O3)cc1)CC2 (racemic) [Example 4, 8-[4-(2,3-dihydro-1,4-benzodioxin-2-yl)benzyl]-2,8-diazaspiro[4.5]decan-1-one] | 0.74
3 | O=S1(=O)CCN(Cc2ccc(C3COc4ccccc4O3)cc2)CC1 (racemic) [Example 7, 4-[4-(2,3-dihydro-1,4-benzodioxin-2-yl)benzyl]thiomorpholine 1,1-dioxide] | 2.79
4 | CC(=O)N1CCN(Cc2ccc(C3COc4ccccc4O3)cc2)CC1 (racemic) [Example 11, 1-{4-[4-(2,3-dihydro-1,4-benzodioxin-2-yl)benzyl]piperazin-1-yl}ethanone] | 2.95
5 | c1cnc2c(c1)OCC(c1ccc(CN3CCCC3)cc1)O2 (racemic) [Example 15, 3-[4-(pyrrolidin-1-ylmethyl)phenyl]-2,3-dihydro[1,4]dioxin[2,3-b]pyridine] | 0.36
6 | c1ccc2c(c1)OCC(c1ccc(CN3CCn4cnnc4C3)cc1)O2 (racemic) [Example 16, 7-[4-(2,3-dihydro-1,4-benzodioxin-2-yl)benzyl]-5,6,7,8-tetrahydro[1,2,4]triazolo[4,3-a]pyrazine] | 2.32
7 | O=S1(=O)CCN(Cc2ccc(C3COc4cccnc4O3)cc2)CC1 (racemic) [Example 17, 3-{4-[(1,1-dioxidothiomorpholin-4-yl)methyl]phenyl}-2,3-dihydro[1,4]dioxin[2,3-b]pyridine] | 0.77
8 | CN1CCCN(Cc2ccc(C3COc4ccccc4O3)cc2)CC1 (racemic) [Example 30, 1-[4-(2,3-dihydro-1,4-benzodioxin-2-yl)benzyl]-4-methyl-1,4-diazepane] | 1.77
9 | CC(=O)N1CCCN(Cc2ccc(C3COc4ccccc4O3)cc2)CC1 (racemic) [Example 31, 1-{4-[4-(2,3-dihydro-1,4-benzodioxin-2-yl)benzyl]-1,4-diazepan-1-yl}ethanone] | 1.54
10 | c1ccc2c(c1)OCC(c1ccc(CN3CCCOCC3)cc1)O2 (racemic) [Example 32, 4-[4-(2,3-dihydro-1,4-benzodioxin-2-yl)benzyl]-1,4-oxazepan] | 1.8
11 | O=C1NC(=O)C2(CCN(Cc3ccc(C4COc5ccccc5O4)cc3)CC2)N1 (racemic) [Example 35, 8-[4-(2,3-dihydro-1,4-benzodioxin-2-yl)benzyl]-1,3,8-triazaspiro[4.5]decan-2,4-dione] | 0.26
12 | CS(=O)(=O)C1CCN(Cc2ccc(C3COc4ccccc4O3)cc2)CC1 (racemic) [Example 39, 1-[4-(2,3-dihydro-1,4-benzodioxin-2-yl)benzyl]-4-(methylsulfonyl)piperidine] | 2.14
13 | c1ccc2c(c1)OCC(c1ccc(CN3CCCCCC3)cc1)O2 (racemic) [Example 40, 1-[4-(2,3-dihydro-1,4-benzodioxin-2-yl)benzyl]azepane] | 0.82
14 | CN(CCc1ccccn1)Cc1ccc(C2COc3ccccc3O2)cc1 (racemic) [Example 42, N-[4-(2,3-dihydro-1,4-benzodioxin-2-yl)benzyl]-N-methyl-2-(pyridin-2-yl)ethanamine] | 0.69
15 | CS(=O)(=O)NC1CCN(Cc2ccc(C3COc4ccccc4O3)cc2)CC1 (racemic) [Example 48, N-{1-[4-(2,3-dihydro-1,4-benzodioxin-2-yl)benzyl]piperidin-4-yl}methanesulfonamide] | 0.16
16 | O=C1CCCN1CC1CCN(Cc2ccc(C3COc4ccccc4O3)cc2)CC1 (racemic) [Example 50, 1-({1-[4-(2,3-dihydro-1,4-benzodioxin-2-yl)benzyl]piperidin-4-yl}methyl)pyrrolidin-2-one] | 0.6
17 | CN(C)C(=O)C1CCN(Cc2ccc(C3COc4ccccc4O3)cc2)CC1 (racemic) [Example 51, 1-[4-(2,3-dihydro-1,4-benzodioxin-2-yl)benzyl]-N,N-dimethylpiperidine-4-carboxamide] | 0.82

Results, then the compound that gave them:

Row | IC50 [nM] | Structure (SMILES)
18 | 2.45 | c1ccc2c(c1)OCC(c1ccc(CN3CCOCC3)cc1)O2 (racemic) [Example 2, 4-[4-(2,3-dihydro-1,4-benzodioxin-2-yl)benzyl]morpholine]
19 | 2.96 | FC1CCN(Cc2ccc(C3COc4ccccc4O3)cc2)CC1 (racemic) [Example 5, 1-[4-(2,3-dihydro-1,4-benzodioxin-2-yl)benzyl]-4-fluoropiperidine]
20 | 10.2 | O=C(CNCc1ccc(C2COc3ccccc3O2)cc1)N1CCCC1 (racemic) [Example 12, 2-{[4-(2,3-dihydro-1,4-benzodioxin-2-yl)benzyl]amino}-1-(pyrrolidin-1-yl)ethanone]
21 | 5.2 | CC(C)(C)NCc1ccc(C2COc3ccccc3O2)cc1 (racemic) [Example 23, N-[4-(2,3-dihydro-1,4-benzodioxin-2-yl)benzyl]-2-methylpropan-2-amine]
22 | 5.9 | CC[C@@H](C)NCc1ccc(C2COc3ccccc3O2)cc1 (mixture of isomers) [Example 24, (2R)-N-[4-(2,3-dihydro-1,4-benzodioxin-2-yl)benzyl]butan-2-amine]
23 | 1.2 | OCC1CCN(Cc2ccc(C3COc4ccccc4O3)cc2)CC1 (racemic) [Example 27, {1-[4-(2,3-dihydro-1,4-benzodioxin-2-yl)benzyl]piperidin-4-yl}methanol]
24 | 3.4 | CC(C)(O)C1CCN(Cc2ccc(C3COc4ccccc4O3)cc2)CC1 (racemic) [Example 28, 2-{1-[4-(2,3-dihydro-1,4-benzodioxin-2-yl)benzyl]piperidin-4-yl}propan-2-ol]
25 | 2.04 | OCCCC1CCN(Cc2ccc(C3COc4ccccc4O3)cc2)CC1 (racemic) [Example 29, 3-{1-[4-(2,3-dihydro-1,4-benzodioxin-2-yl)benzyl]piperidin-4-yl}propan-1-ol]
26 | 3.19 | COCCN(C)Cc1ccc(C2COc3ccccc3O2)cc1 (racemic) [Example 33, N-[4-(2,3-dihydro-1,4-benzodioxin-2-yl)benzyl]-2-methoxy-N-methylethanamine]
27 | 1.89 | O[C@@H]1CCN(Cc2ccc(C3COc4ccccc4O3)cc2)C1 (mixture of isomers) [Example 34, (3R)-1-[4-(2,3-dihydro-1,4-benzodioxin-2-yl)benzyl]pyrrolidin-3-ol]
28 | 4.45 | COC1CN(Cc2ccc(C3COc4ccccc4O3)cc2)C1 (racemic) [Example 36, 1-[4-(2,3-dihydro-1,4-benzodioxin-2-yl)benzyl]-3-methoxyazetidine]
29 | 1.14 | CN(C)C(=O)CC1CCN(Cc2ccc(C3COc4ccccc4O3)cc2)CC1 (racemic) [Example 38, 2-{1-[4-(2,3-dihydro-1,4-benzodioxin-2-yl)benzyl]piperidin-4-yl}-N,N-dimethylacetamide]
30 | 3.71 | c1ccc2c(c1)OCC(c1ccc(CNC3CCCC3)cc1)O2 (racemic) [Example 41, N-[4-(2,3-dihydro-1,4-benzodioxin-2-yl)benzyl]cyclopentanamine]
31 | 4.42 | c1ccc2c(c1)OCC(c1ccc(CNCC3CC3)cc1)O2 (racemic) [Example 43, 1-cyclopropyl-N-[4-(2,3-dihydro-1,4-benzodioxin-2-yl)benzyl]methanamine]
32 | 0.9 | CCN(CC)Cc1ccc(C2COc3ccccc3O2)cc1 (racemic) [Example 45, N-[4-(2,3-dihydro-1,4-benzodioxin-2-yl)benzyl]-N-ethylethanamine]
33 | 24.8 | N#CC1CN(Cc2ccc(C3COc4ccccc4O3)cc2)C1 (racemic) [Example 46, 1-[4-(2,3-dihydro-1,4-benzodioxin-2-yl)benzyl]azetidine-3-carbonitrile]
34 | 1.73 | COC1CCN(Cc2ccc(C3COc4ccccc4O3)cc2)C1 (racemic) [Example 47, 1-[4-(2,3-dihydro-1,4-benzodioxin-2-yl)benzyl]-3-methoxypyrrolidine]
35 | 5.93 | c1cncc(CNCc2ccc(C3COc4ccccc4O3)cc2)c1 (racemic) [Example 54, 1-[4-(2,3-dihydro-1,4-benzodioxin-2-yl)phenyl]-N-(pyridin-3-ylmethyl)methanamine]
36 | 3.63 | Cn1cnc(CNCc2ccc(C3COc4ccccc4O3)cc2)c1 (racemic) [Example 55, 1-[4-(2,3-dihydro-1,4-benzodioxin-2-yl)phenyl]-N-[(1-methyl-1H-imidazol-4-yl)methyl]methanamine]
37 | 2.49 | O=C(O)C1CCCN(Cc2ccc(C3COc4ccccc4O3)cc2)C1 (racemic) [Example 113, 1-[4-(2,3-dihydro-1,4-benzodioxin-2-yl)benzyl]piperidine-3-carboxylic acid]
38 | 0.77 | NC(=O)C1CCCN(Cc2ccc(C3COc4ccccc4O3)cc2)C1 (racemic) [Example 114, 1-[4-(2,3-dihydro-1,4-benzodioxin-2-yl)benzyl]piperidine-3-carboxamide]

Source: patent US8946203B2, “Benzodioxane inhibitors of leukotriene production” (Boehringer Ingelheim International GmbH, priority 2012, dated 2015)
